Target: CDK2 (Homo sapiens, UniProt P24941)
Experiment: CDK2 substrate phosphorylation assay
Type: biochemical
Conditions: CDK2 expressed in baculovirus system; peptide Biotin-aminohexyl-ARRPMSPKKKA-NH2, [g-32P]ATP; pIC50 = −log10(IC50)
Method: The compounds of the present invention have valuable pharmacologic properties. Different compounds from this class are particularly effective at inhibiting CDK2. Substrate phosphorylation assays were carried out as follows:
Cyclin dependent protein kinase 2 assays utilized the peptide Biotin-aminohexyl-ARRPMSPKKKA-NH2 (SEQ ID NO:1) as phosphoryl group acceptor. CDK2 was expressed utilizing a baculovirus expression system and was partially purified to comprise 20-80% of total protein, with no detectable competing reactions present. Typically, assays were performed by incubating enzyme (0.2-10 nM), with and without inhibitor, peptide substrate ([…]), [g-32P]ATP ([…]), and 10-20 mM Mg2+ for periods of time generally within the range 10-120 minutes. Reactions were terminated with 0.2-2 volumes of either 20% acetic acid or 50-100 mM EDTA buffered to pH 7 (substrate consumption <20%). The buffer employed in enzyme assay was 100 mM HEPES pH 7.5 containing 0.1 mg/mL BSA and 5% DMSO. Inhibitors were diluted in 100% DMSO prior to addition into the assay. Detection of peptide phosphorylation was accomplished by scintillation counting following either collection of peptide onto phosphocellulose filters (for reactions stopped with acetic acid), collection of peptide in wells of 96 well plates coated with Streptavidin (Pierce) (reactions were stopped with EDTA), or addition of Avidin coated Scintillant impregnated beads (Scintillation Proximity Assays from Amersham, reactions were stopped with EDTA). Counts detected by any of these methodologies minus the appropriate background (assays with additional 40 mM EDTA or lacking peptide substrate) were assumed to be proportional to the reaction initial rates, and IC50s were determined by a least squares fit to the equation CPM=Vmax*(1−([I]/(K+[I])))+nsb, or −pIC50s were determined by a fit to the equation CPM=nsb+(Vmax−nsb)/(1+(x/10x−pIC50)), where nsb are the background counts […]. Radioactivity was determined by liquid scintillation counting.

Row | SMILES | IC50 [nM]
1 | NS(=O)(=O)c1ccc(Nc2cc(-c3cccc(N4CCOCC4)c3)n[nH]2)cc1 [In, 4-[5-(3-Morpholin-4-yl-phenyl)-2H-pyrazol-3-ylamino]-benzenesulfonamide] | 102 to 20000
2 | Nc1ccc(-c2cc(Nc3ccc(S(N)(=O)=O)cc3)[nH]n2)cc1 [Ih, 4-[5-(4-Amino-phenyl)-2H-pyrazol-3-ylamino]-benzenesulfonamide] | 0.102 to 1
3 | NS(=O)(=O)c1ccc(Nc2cc(-c3cccc(NC(=O)Nc4cc(C(F)(F)F)ccc4F)c3)n[nH]2)cc1 [Compound Il, 4-(5-{3-[3-(2-Fluoro-5-trifluoromethyl-phenyl)-ureido]-phenyl}-2H-pyrazol-3-ylamino)-benzenesulfonamide] | 10.2 to 100
4 | Nc1cccc(-c2cc(Nc3ccc(S(N)(=O)=O)cc3)[nH]n2)c1 [Compound Ij, 4-[5-(3-Amino-phenyl)-2H-pyrazol-3-ylamino]-benzenesulfonamide] | 1.02 to 10

Source: US7507834B2, “Substituted anilinopyrazoles” (SmithKline Beechan Corporation, priority 2003, dated 2009)
